Series [1] deals with rats. The series is described as follows: Acute toxicity (oral administration to rats). In kind it is in vivo. As for the experimental part: (2) The LD50 value of the sodium alginate was 5,000 mg/kg as determined by oral administration to rats.
Series [2] is described as follows: Clinical examples: treatment of stomatitis in cancer patients subjected to chemotherapy and/or radiotherapy. Type of series: in vivo, patient. An excerpt:
Examples (Clinical Examples):
The frequency indicated in each example indicates a symptomatic process and was judged on the basis of the side effect standard by the Japanese Cancer Association. The frequency and symptom thereof are as follows, and a higher frequency indicates a severer symptom. […]

`NCCC(=O)[N-][C@@H](Cc1c[nH]cn1)C(=O)[O-].[Zn+2]` [crystalline L-carnosine zinc salt, L-carnosine zinc salt]: in series [1], the LD50 is 8,441 mg/kg. The “clinical outcome of stomatitis” value in series [2] (Example 1, suspension 150 mg/100 ml, 5 ml, 5 or 6 times a day, 8 days) was “the erosion and ulcer arisen on the intraoral mucosa were completely healed”; in series [2] (Example 2, suspension 450 mg/100 ml, 5 ml, 2 to 4 times a day 6 days, then 3 days, swab additional 2 days), “the ulcer arisen on the intraoral mucosa and angulus oris was completely healed, and the patient became able to ingest a solid diet”; in series [2] (Example 3, suspension 300 mg/100 ml, 5 ml, twice a day, 10 days), “the ulcer arisen on the intraoral mucosa was completely healed, and the patient became able to ingest a solid diet”; in series [2] (Example 12, ointment 150 mg in plastibase 100 g, swab, 3 to 5 times a day, 9 days), “the ulcer in the oral cavity was completely healed, and the patient became able to ingest a solid diet”.

For sodium alginate [reference compound], in series [1], the LD50 is 5,000 mg/kg.

The values above are taken from patent US6169083A, “Preventives/remedies for stomatitis” (Zeria Pharmaceutical Co., Ltd., priority 1996, dated 2001).
